Measured values taken from US20070003641A1, “Synergistic pharmaceutical compositions useful in prevention and treatment of beta-amyloid protein-induced disease” (priority 2005, published 2007).

Experiments:
[1] = test system: IMR32 human neuroblastoma cells; assay: MTT reduction assay: protection of IMR32 cells from βA insult; assay type: cell-based
Method: (§1) The neuronal cell protection by the extract or combination of extracts was determined by observing the differences in the cell viability of βA (both 25-35 and 1-42) treated cells, βA (both 25-35 and 1-42) treated cells further including an extract or a combination of extracts according to the invention, and a DMSO control.
(§2) The degree of βA insult was measured by 3-[4,5-dimethylthiazol-2-yl]-2,5-diphenyltetrazolium bromide (MTT) reduction assay. See Kim et al., Neurosci Lett 303, 57 (2001), Park et al., J Nat Prod 65, 1227 (2002) and Kim et al., Plant Medica 68, 375 (2002). The detection of cell growth or cell death can be determined by observing the conversion of MTT to the colored product, MTT formazan, the concentration of which can be measured colorimetrically at 550 nm. See Kim et al., Neurosci Lett 303, 57 (2001).
(§3) The extract or combination of extracts' ability to protect PC12 cells from βA insult was investigated according to the published procedure. See Kim et al., Neurosci Lett 303, 57 (2001), Park et al., J Nat Prod 65, 1227 (2002) and Kim et al., Plant Medica 68, 375 (2002). For the bioassay, 90 μL of exponentially growing cells (2,000 cells per mL) were plated in 96-well tissue culture plates. Cells were incubated with βA(1-42) (2.0 μg/mL, prepared from a stock solution (1.0 mg/mL in dimethyl sulfoxide (DMSO))) and test compound at various concentrations (50, 10, 2, 0.4, and 0.08 μg/mL) for 24 hours. The final DMSO concentration was less than 1%. The extract or combination of extracts' ability to protect PC12 cells from βA(1-42) insult was determined by measuring the cell's potential to reduce MTT with respect to the treatment of cells with 1% DMSO only and the treatment of cells with […] βA(1-42) and 1% DMSO without the presence of test extract or a combination of extracts. After the incubation of cells in MTT solution (25 μL per well, 1 mg/mL stock solution) for 1 h at 37° C., 100 μL Lysing buffer (50% aqueous dimethylformamide (DMF) and 20% sodium dodecyl sulfate (SDS) at pH 4.7) was added and incubated overnight at 37° C. Optical density of the resulting solutions was colorimetrically determined at 550 nm using a microplate reader. Dose-response curves were prepared and the results were expressed as ED50 values in μg/mL (Table 1). Curcumin and (±)-α-tocopherol (vitamin-E) were used as reference compounds. Bioassay using βA(25-35) was similarly performed. The extract or combination of extracts' ability to protect IMR32 and HUVEC cells from βA insult was also similarly investigated.
(§4) PC12 cells were obtained from the American Type Culture Collection (Rockville, Md.). Cells were routinely cultured on a polystyrene-coated Corning tissue culture plate (Corning, New York, N.Y.). Culture media and supplements were obtained from Life Technologies (Grand Island, N.Y.). Cells were maintained in high glucose Dulbecco's modified Eagle medium, 10% horse serum, 5% fetal calf serum, and 1% penicillin/streptomycin. See Kim et al., Neurosci Lett 303, 57 (2001), Park et al., J Nat Prod 65, 1227 (2002) and Kim et al., Plant Medica 68, 375 (2002). IMR32 human neuroblastoma cells were obtained from the American Type Culture Collection (ATCC). Normal umbilical human vein endothelial (HUVEC) cells were obtained from Clonetics (San Diego, Calif.). Cells were routinely cultured on a polystyrene-coated Corning tissue culture plate (Corning, New York, N.Y.). IMR32 cells were grown in high glucose Dulbecco's Modified Eagle Medium (DMEM), 10% horse serum, 5% fetal calf serum, and 1% penicillin/streptomycin. HUVEC cells were grown in EGM-2 Bullet Kit (Clonetics, San Diego, Calif.). For the bioassay using βA(25-35), 100 μl of exponentially growing IMR32 and HUVEC cells (2,000 and 500 cells per ml, respectively) were plated in 96-well tissue culture plates. A different number of cells per ml was used for the experiment because of the cell size difference of HUVEC cells with respect to IMR32 cells and PC12 cells. […]

HUVEC cells = assay: MTT reduction assay: protection of HUVEC cells from βA insult; assay type: cell-based, human
Method: as §1, §2, §3, §4

PC12 cells = assay: MTT reduction assay: protection of PC12 cells from βA insult; assay type: cell-based; settings: 24 hours
Method: as §1, §2, §3, §4

[2] = test system: PC12, IMR32, and HUVEC cells; assay: Cell protection from βA peptide insult, stated in words; assay type: cell-based
Method: as §1
The degree of βA insult was measured by 3-[4,5-dimethylthiazol-2-yl]-2,5-diphenyltetrazolium bromide (MTT) reduction assay. See Kim et al., Neurosci Lett 303, 57 (2001), Park et al., J Nat Prod 65, 1227 (2002) and Kim et al., Plant Medica 68, 375 (2002). The detection of cell growth or cell death can be determined by observing the conversion of MTT to the colored product, MTT formazan, the concentration of which can be measured colorimetrically at 550 nm. […]
The extract or combination of extracts' ability to protect PC12 cells from βA insult was investigated according to the published procedure. […] The extract or combination of extracts' ability to protect PC12 cells from βA(1-42) insult was determined by measuring the cell's potential to reduce MTT with respect to the treatment of cells with 1% DMSO only and the treatment of cells with 1.0 μg/mL βA(1-42) and 1% DMSO without the presence of test extract or a combination of extracts. […] Optical density of the resulting solutions was colorimetrically determined at 550 nm using a microplate reader. […]

Compound | ED50, cell protection against βA insult ([1]; βA(1-42)) | ED50, cell protection against βA insult ([1]; βA(25-35)) | ED50, cell protection against βA insult (HUVEC cells; βA(1-42)) | ED50, cell protection against βA insult (HUVEC cells; βA(25-35)) | ED50, cell protection against βA insult (PC12 cells; βA(1-42)) | ED50, cell protection against βA insult (PC12 cells; βA(25-35)) | protection of cells from βA peptide insult (in words) [2]
CCCCC/C=C/C(=O)CCc1ccc(O)c(OC)c1 [6-shogaol [6S], 6-shogaol] | 6.1 mg/L | 6.3 mg/L | 5.5 mg/L | 5.9 mg/L | 5.7 mg/L | 5.4 mg/L | –
CCCCCCCCCCC(=O)CCc1ccc(O)c(OC)c1 [(45), [9]-dihydroshogaol] | – | – | – | – | – | – | effectively protected cells from βA peptide insult
CCCCCCCCC=CC(=O)CCc1ccc(O)cc1 [(50), [9]-demothoxyshogaol] | – | – | – | – | – | – | effectively protected cells from βA peptide insult
CC(C)c1cc2c(c(O)c1O)[C@@]13CCCC(C)(C)[C@@H]1[C@@H](O)C2OC3=O [RS-7] | 3.4 mg/L | 2.9 mg/L | 3.5 mg/L | 3.2 mg/L | 3.1 mg/L | 2.3 mg/L | –
CC(C)c1cc(C=O)c2c(c1O)OC(=O)[C@@]21CCCC(C)(C)[C@@H]1C=O [RS-8] | 14.6 mg/L | 15.2 mg/L | 16.7 mg/L | 15.5 mg/L | 13.3 mg/L | 11.6 mg/L | –
CC(C)c1cc2c(c(O)c1O)[C@@]13CCCC(C)(C)[C@@H]1[C@H](OC3=O)[C@H]2O [RS-9] | 35.5 mg/L | 38.3 mg/L | 34.2 mg/L | 31.0 mg/L | 35.4 mg/L | 33.2 mg/L | –
COc1cc(C=CC(=O)CC(=O)C=Cc2ccc(O)c(OC)c2)ccc1O [curcumin, 1,7-bis(4-hydroxy-3-methoxyphenyl)-1,6-heptadiene-3,5-dione, reference compound] | 6.3 mg/L | 7.4 mg/L | 6.8 mg/L | 6.2 mg/L | 7.1 mg/L | 6.7 mg/L | –
(±)-α-tocopherol [reference compound] | >50 mg/L | >50 mg/L | >50 mg/L | >50 mg/L | >50 mg/L | >50 mg/L | –
